# Experiments:
# PDF1.2 mRNA = assay: MeJA treatment of plants, RNA gel blot of JA-responsive PDF1.2 mRNA; type: in vivo, Arabidopsis
# THI2.1 mRNA = assay: MeJA treatment of plants, RNA gel blot of JA-responsive THI2.1 mRNA; type: in vivo, Arabidopsis; details: for THI2.1 mRNA accumulation after MeJA treatment: not shown
# [1] = nahG expressing wild type plants
compound,measurement,setting,value
"CC/C=C\CC1C(=O)CCC1CC(=O)OC (stereo not drawn) [MeJA, methyl jasmonate]",PDF1.2 mRNA accumulation after MeJA treatment,PDF1.2 mRNA; mpk4/nahG plants,not inducible
same,induction of PDF1.2 expression,"PDF1.2 mRNA; mpk4 mutant plants, sprayed with 50 μM MeJA, harvested after 48 hours",failed to induce
same,PDF1.2 mRNA accumulation after MeJA treatment,PDF1.2 mRNA; [1],induced
same,THI2.1 mRNA accumulation after MeJA treatment,THI2.1 mRNA; mpk4/nahG plants,not inducible
same,induction of THI2.1 expression,"THI2.1 mRNA; mpk4 mutant plants, sprayed with 50 μM MeJA, harvested after 48 hours, data not shown",failed to induce
same,THI2.1 mRNA accumulation after MeJA treatment,THI2.1 mRNA; [1],induced

# — patent US20040172685A1, “Method of using MAPK4 and orthologues thereof to control plant disease resistance and plant growth” (priority 1999, published 2004)
